Data from ChEMBL document CHEMBL1909046, “DrugMatrix in vitro pharmacology data”.

Tests used:
B2 bradykinin receptor = target: T1, B2 bradykinin receptor (Homo sapiens, UniProt P30411); assay type: cell membranes, Membrane; settings: chem-1; also: in other assays of this panel Not Active means under 50% inhibition at 10 µM
T1 sequence (P30411 whole entry): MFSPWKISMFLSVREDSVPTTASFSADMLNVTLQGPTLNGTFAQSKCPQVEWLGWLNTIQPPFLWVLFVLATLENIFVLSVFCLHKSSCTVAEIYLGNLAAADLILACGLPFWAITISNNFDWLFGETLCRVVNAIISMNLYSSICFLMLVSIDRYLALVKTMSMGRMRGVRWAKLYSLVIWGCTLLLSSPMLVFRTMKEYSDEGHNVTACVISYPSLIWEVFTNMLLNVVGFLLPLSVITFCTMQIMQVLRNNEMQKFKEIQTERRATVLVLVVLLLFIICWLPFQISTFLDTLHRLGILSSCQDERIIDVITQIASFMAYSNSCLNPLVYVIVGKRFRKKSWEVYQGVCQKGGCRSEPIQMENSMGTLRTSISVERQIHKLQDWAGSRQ

Thromboxane-A synthase = target: T2, Thromboxane-A synthase (Homo sapiens, UniProt P24557); experiment: biochemical; assay type: tissue-based, Platelet;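 also: enzyme inhibition assay with PGH2 supplied as substrate; in other assays of this panel Not Active means under 50% inhibition at 10 µM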
T2 sequence (P24557 whole entry): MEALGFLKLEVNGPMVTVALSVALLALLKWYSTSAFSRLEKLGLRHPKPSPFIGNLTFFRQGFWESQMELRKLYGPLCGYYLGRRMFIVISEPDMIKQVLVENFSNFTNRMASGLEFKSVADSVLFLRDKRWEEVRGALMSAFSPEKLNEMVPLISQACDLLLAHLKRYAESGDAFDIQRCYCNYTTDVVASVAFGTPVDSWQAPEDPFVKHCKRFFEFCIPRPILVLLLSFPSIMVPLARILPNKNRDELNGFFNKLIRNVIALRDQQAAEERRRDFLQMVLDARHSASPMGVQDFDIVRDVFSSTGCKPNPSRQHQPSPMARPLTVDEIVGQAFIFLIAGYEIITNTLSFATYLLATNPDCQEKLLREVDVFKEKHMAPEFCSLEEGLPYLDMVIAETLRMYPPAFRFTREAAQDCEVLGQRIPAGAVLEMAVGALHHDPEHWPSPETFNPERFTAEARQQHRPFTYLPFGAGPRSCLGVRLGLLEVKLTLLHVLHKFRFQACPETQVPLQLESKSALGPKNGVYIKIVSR

[1] = target: T3, Amine oxidase [flavin-containing] A (Homo sapiens, UniProt P21397); experiment: DRUGMATRIX: Monoamine Oxidase MAO-A enzyme inhibition (substrate: Kynuramine); parameters: species or system BTI-TN-5B1-4; settings: Not Active = under 50% inhibition at 10 µM
T3 sequence (P21397 whole entry): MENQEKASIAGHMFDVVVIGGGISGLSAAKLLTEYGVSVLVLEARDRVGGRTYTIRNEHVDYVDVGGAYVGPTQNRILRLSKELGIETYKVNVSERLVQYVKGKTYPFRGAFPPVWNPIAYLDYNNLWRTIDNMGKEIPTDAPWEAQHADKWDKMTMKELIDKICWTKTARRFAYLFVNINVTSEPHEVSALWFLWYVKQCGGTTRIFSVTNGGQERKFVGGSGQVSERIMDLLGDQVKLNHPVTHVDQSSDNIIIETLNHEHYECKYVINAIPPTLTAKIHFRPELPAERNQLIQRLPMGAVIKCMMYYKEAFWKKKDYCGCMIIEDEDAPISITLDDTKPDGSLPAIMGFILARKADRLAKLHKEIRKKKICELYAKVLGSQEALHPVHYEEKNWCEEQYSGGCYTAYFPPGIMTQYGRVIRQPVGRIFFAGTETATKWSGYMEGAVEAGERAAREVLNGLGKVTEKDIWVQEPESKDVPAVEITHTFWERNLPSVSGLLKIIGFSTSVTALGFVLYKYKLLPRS

[2] = target: T4, Muscarinic acetylcholine receptor M5 (Homo sapiens, UniProt P08912); assay type: cell membranes, CHO-K1, Membrane; also: in other assays of this panel Not Active means under 50% inhibition at 10 µM
T4 sequence (P08912 whole entry): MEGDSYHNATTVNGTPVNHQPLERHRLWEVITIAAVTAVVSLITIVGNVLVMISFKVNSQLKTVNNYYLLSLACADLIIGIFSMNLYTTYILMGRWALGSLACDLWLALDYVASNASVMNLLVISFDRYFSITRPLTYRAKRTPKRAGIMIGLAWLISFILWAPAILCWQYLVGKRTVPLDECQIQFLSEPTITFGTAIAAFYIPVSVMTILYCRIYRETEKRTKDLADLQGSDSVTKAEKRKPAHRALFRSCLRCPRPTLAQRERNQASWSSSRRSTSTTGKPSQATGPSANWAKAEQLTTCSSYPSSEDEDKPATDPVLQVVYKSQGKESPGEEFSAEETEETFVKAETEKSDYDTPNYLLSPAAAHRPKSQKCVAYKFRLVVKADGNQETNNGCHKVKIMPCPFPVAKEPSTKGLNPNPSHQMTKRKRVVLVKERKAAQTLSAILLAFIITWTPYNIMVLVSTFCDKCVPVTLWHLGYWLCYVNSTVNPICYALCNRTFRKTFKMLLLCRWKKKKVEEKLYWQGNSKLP

[3] = DRUGMATRIX: Nicotinic Acetylcholine radioligand binding (ligand: [125I] Epibatidine); assay type: cell membranes, Membrane; settings: imr-32; Not Active = under 50% inhibition at 10 µM
[4] = target: Mitogen-activated protein kinase 14 (Homo sapiens, UniProt Q16539); parameters: species or system Escherichia coli;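 also: inhibition of p38alpha enzyme activity in a biochemical kinase assay, with myelin basic protein serving as substrate; in other assays of this panel Not Active means under 50% inhibition at 10 µM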
[5] = DRUGMATRIX: Purinergic P2X radioligand binding (ligand: [3H] alpha, beta-Methylene-ATP); assay type: cell membranes, Oryctolagus cuniculus, New Zealand albino, Urinary bladder, Membrane; settings: Not Active = under 50% inhibition at 10 µM

Chain of Mitogen-activated protein kinase 14 (Q16539 whole entry): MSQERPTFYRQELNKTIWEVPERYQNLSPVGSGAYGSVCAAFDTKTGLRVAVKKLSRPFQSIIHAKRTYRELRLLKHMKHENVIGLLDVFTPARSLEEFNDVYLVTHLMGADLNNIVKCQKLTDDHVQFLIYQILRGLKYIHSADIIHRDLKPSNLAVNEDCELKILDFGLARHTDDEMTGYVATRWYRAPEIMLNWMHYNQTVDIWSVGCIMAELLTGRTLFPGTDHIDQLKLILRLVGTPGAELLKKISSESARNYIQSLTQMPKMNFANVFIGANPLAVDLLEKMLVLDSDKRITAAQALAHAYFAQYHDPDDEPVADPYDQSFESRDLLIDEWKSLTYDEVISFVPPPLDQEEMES

| Compound | IC50 (B2 bradykinin receptor) | IC50 (Thromboxane-A synthase; read-out: IC50) [µM] | IC50 ([1]; bti-tn-5b1-4) | IC50 ([2]; cho-k1) | IC50 [3] | Ki [3] | IC50 [4] | IC50 [5] | Ki [5] | IC50 (Thromboxane-A synthase; platelet) | IC50 ([4]; read-out: IC50) [µM] | IC50 ([2]; read-out: IC50) [µM] | Ki ([2]; read-out: Ki) [µM] | IC50 ([1]; read-out: IC50) [µM] | Ki ([2]; cho-k1) |
| --- | --- | --- | --- | --- | --- | --- | --- | --- | --- | --- | --- | --- | --- | --- | --- |
| CCOc1nc2cccc(C(=O)O)c2n1Cc1ccc(-c2ccccc2-c2nnn[nH]2)cc1 | Not Active | 3.06 | Not Active | Not Active | Not Active | Not Active | Not Active | Not Active | Not Active |  |  |  |  |  |  |
| O=C(O)CCCc1cccs1 | Not Active |  | Not Active | Not Active | Not Active | Not Active | Not Active | Not Active | Not Active | Not Active |  |  |  |  |  |
| COc1ccccc1N | Not Active |  | Not Active | Not Active | Not Active | Not Active | Not Active | Not Active | Not Active | Not Active |  |  |  |  |  |
| O=C(c1ccccc1F)N1CCC(Cc2ccccc2)CC1 | Not Active |  | Not Active | Not Active | Not Active | Not Active |  | Not Active | Not Active | Not Active | 0.537 |  |  |  |  |
| Cc1c(O)cccc1C(=O)N[C@@H](CSc1ccccc1)[C@H](O)CN1C[C@H]2CCCC[C@H]2C[C@H]1C(=O)NC(C)(C)C | Not Active | 21.1 | Not Active |  | Not Active | Not Active |  | Not Active | Not Active |  | 18.2 | 86.1 | 61.8 |  |  |
| CC(O)COC[C@H]1O[C@@H]2O[C@H]3[C@H](O)[C@@H](O)[C@@H](O[C@H]4[C@H](O)[C@@H](O)[C@@H](O[C@H]5[C@H](O)[C@@H](O)[C@@H](O[C@H]6[C@H](O)[C@@H](O)[C@@H](O[C@H]7[C@H](O)[C@@H](O)[C@@H](O[C@H]8[C@H](O)[C@@H](O)[C@@H](O[C@H]1[C@H](O)[C@H]2O)O[C@@H]8COCC(C)O)O[C@@H]7COCC(C)O)O[C@@H]6COCC(C)O)O[C@@H]5COCC(C)O)O[C@@H]4COCC(C)O)O[C@@H]3COCC(C)O (stereo partly drawn) [2-HYDROXYPROPYL-BETA-CYCLODEXTRIN] | Not Active |  |  | Not Active | Not Active | Not Active | Not Active | Not Active | Not Active | Not Active |  |  |  | 0.167 |  |
| NC(=O)c1cccc(N)c1 [3-AMINOBENZAMIDE] | Not Active |  | Not Active | Not Active | Not Active | Not Active | Not Active | Not Active | Not Active | Not Active |  |  |  |  |  |
| C[C@H]1O[C@H](O[C@H]2[C@H](O)[C@@H](O)[C@@H](O[C@H]3[C@H](O)[C@@H](O)C(O)O[C@@H]3CO)O[C@@H]2CO)[C@H](O)[C@@H](O)[C@@H]1N[C@H]1C=C(CO)[C@@H](O)[C@H](O)[C@H]1O (stereo partly specified) [ACARBOSE] | Not Active |  | Not Active | Not Active | Not Active | Not Active | Not Active | Not Active | Not Active | Not Active |  |  |  |  |  |
| CC[C@H]1[C@@H]2C[C@H]3[C@@H]4N(C)c5ccccc5[C@]45C[C@@H]([C@@H]2[C@H]5O)N3[C@@H]1O [AJMALINE] | Not Active |  | Not Active | Not Active | Not Active | Not Active | Not Active | Not Active | Not Active | Not Active |  |  |  |  |  |
| NC12CC3CC(CC(C3)C1)C2 [AMANTADINE] | Not Active |  | Not Active | Not Active | Not Active | Not Active | Not Active | Not Active | Not Active | Not Active |  |  |  |  |  |
| NCCCNCCSP(=O)(O)O [AMIFOSTINE] | Not Active |  | Not Active | Not Active | Not Active | Not Active | Not Active | Not Active | Not Active | Not Active |  |  |  |  |  |
| CN(C)CCC=C1c2ccccc2CCc2ccccc21 [AMITRIPTYLINE] | Not Active |  | Not Active |  | Not Active | Not Active | Not Active | Not Active | Not Active | Not Active |  | 0.00802 | 0.00576 |  |  |
| CC(=O)Oc1ccccc1C(=O)O [ASPIRIN] | Not Active |  | Not Active | Not Active | Not Active | Not Active | Not Active | Not Active | Not Active | Not Active |  |  |  |  |  |
| CC(C)c1c(C(=O)Nc2ccccc2)c(-c2ccccc2)c(-c2ccc(F)cc2)n1CC[C@@H](O)C[C@@H](O)CC(=O)O [ATORVASTATIN] | Not Active |  | Not Active | Not Active | Not Active | Not Active | Not Active | Not Active | Not Active | Not Active |  |  |  |  |  |
| CC(=O)OC[C@H]1O[C@@H](n2ncc(=O)[nH]c2=O)[C@H](OC(C)=O)[C@@H]1OC(C)=O [AZARIBINE] | Not Active |  | Not Active |  | Not Active | Not Active | Not Active | Not Active | Not Active | Not Active |  |  |  |  | Not Active |
| C[C@H]1[C@H](NC(=O)/C(=N\OC(C)(C)C(=O)O)c2csc(N)n2)C(=O)N1S(=O)(=O)O [AZTREONAM] | Not Active |  | Not Active | Not Active | Not Active | Not Active | Not Active | Not Active | Not Active | Not Active |  |  |  |  |  |
| O=C(O)CCNC(=O)c1ccc(/N=N/c2ccc(O)c(C(=O)O)c2)cc1 [BALSALAZIDE] | Not Active |  | Not Active | Not Active | Not Active | Not Active | Not Active | Not Active | Not Active | Not Active |  |  |  |  |  |
| O=c1c(-c2ccc(O)cc2)coc2cc(O)cc(O)c12 [GENISTEIN] | Not Active | 7.72 |  | Not Active | Not Active | Not Active | Not Active | Not Active | Not Active |  |  |  |  |  |  |
| NNCCc1ccccc1 [PHENELZINE] | Not Active |  |  | Not Active | Not Active | Not Active | Not Active | Not Active | Not Active | Not Active |  |  |  |  |  |
